Values quoted from earlier work as cited in patent publication US7593820B2, “Crystal structure of human Janus Kinase 2 (JAK2) and uses thereof” (Cytopia Research Pty Ltd, priority 2005, dated 2009).

Test system: other PTKs that possess either a Thr or Val
Settings: Thr or Val at gatekeeper position

IC50 for other PTKs that possess either a Thr or Val: uM range
SMILES: CC(C)(C)c1nc2c3cc[nH]c(=O)c3c3cc(F)ccc3c2[nH]1 [Compound 6, 2-tert-Butyl-9-fluoro-3,6-dihydro-7H-benz[h]imidazo[4,5-f]isoquinolin-7-one]
